Data reported in patent US11885796B2, “Assay to identify anti-cancer agents” (LDN Pharma Limited, priority 2017, dated 2024).

Columns and labels:
Assay type in all cases: cell-based
OPRK1 [1] = test: Level of expression of OPRK1 by immunoblotting in A549 lung cancer cells; settings: 1 nM to 10 μM, 48 h, immunoblotting (FIG. 1)
Procedure: (§1) In order to determine the effect of 6-β-naltrexol or naltrexone on the level of expression of OPRK1, A549 lung cancer or HCT116 colon cancer cells were seeded onto 6-well plates at a density of 2×10^5 cell/well, and allowed to adhere overnight. Cells were then cultured in the presence of naltrexone or 6-β-naltrexol at concentrations of 1 nM, 10 nM, 100 nM, 1 μM or 10 μM for a further 48 h. Cells were then harvested and processed for measurements of OPRK1, opioid receptor-μ1 (OPRM1) and GAPDH using standard immunoblotting techniques. The effect of 6-β-naltrexol or naltrexone on the level of expression of BAD was investigated by using the same protocol as outlined above. The effect was determined in HCT116 cells using either 10 nM or 10 μM of 6-β-naltrexol or 10 nM or 10 μM naltrexone (FIG. 2).

OPRK1 [2] = test: Level of expression of OPRK1 by immunoblotting in HCT116 colon cancer cells; settings: 1 nM to 10 μM, 48 h, immunoblotting (FIG. 1)
Procedure: as §1

BAD = test: Level of expression of BAD by immunoblotting in HCT116 cells; settings: 48 h (FIG. 2)
Procedure: as §1

A549 and HCT116 cells = test: Two-phase priming with 6-β-naltrexol then chemotherapy agent; cell number and viability by trypan blue cell counting
Procedure: The impact of combining 6-β-naltrexol with other chemotherapeutic agents was tested by culturing cells according to a treatment schedule that involved two phases of treatment. The first phase involved priming with 10 nM 6-β-naltrexol or 10 μM 6-β-naltrexol for 48 h, before treatment with another drug for a further 48 h. A549 and HCT116 cells were seeded into 6-well plates at a density of 2×10^5 cells/well and left to adhere overnight. Media was removed after 48 h, and cells were rinsed gently with drug-free medium. Fresh culture medium that contained cyclophosphamide (CPM), gemcitabine (GEM) or oxaliplatin (OXP) was then added to the cells. The concentrations of the chemotherapy agents used were approximately ¼ IC50, as established previously (Liu W M, Fowler D W, Smith P, Dalgleish A G. Pre-treatment with chemotherapy can enhance the antigenicity and immunogenicity of tumours by promoting adaptive immune responses. Br J Cancer. 2010 Jan. 5; 102(1):115-23). Cells were then left for a further 48 h before assessment of cell number of viability by cell counting using trypan blue dye as a way of discriminating live and dead cells. Cytostasis was indicated by a reduction in cell number and no associated reduction in cell viability.

Oc1ccc2c3c1OC1[C@H](O)CC[C@@]4(O)[C@@H](C2)N(CC2CC2)CC[C@]314 (stereo partly drawn) [6-β-naltrexol, 17-(Cyclopropylmethyl)-4,5-epoxymorphinan-3,6beta, 14-triol]
level of expression of OPRK1 (OPRK1 [1]): increase the level of expression | level of expression of OPRK1 (OPRK1 [2]): increases the level of expression | effect on the level of expression of BAD (BAD; 10 nM): negligible effect | increase of the level of expression of BAD (BAD; 10 μM): more than 10% | independent cytotoxicity of the priming agent (A549 and HCT116 cells; higher dose of 6-β-naltrexol alone (double doses control)): absence of any independent increase in cytotoxicity | cytotoxic effect of certain anti-cancer agents after priming (A549 and HCT116 cells; priming 48 h in an amount sufficient to raise OPRK1 expression by at least 10%, then cyclophosphamide, gemcitabine or oxaliplatin at approximately ¼ IC50 for 48 h): increased

O=C1CC[C@@]2(O)[C@H]3Cc4ccc(O)c5c4[C@@]2(CCN3CC2CC2)[C@H]1O5 [naltrexone]
level of expression of OPRK1 (OPRK1 [1]): increase the level of expression | level of expression of OPRK1 (OPRK1 [2]): down-regulates the level of expression | effect on the level of expression of BAD (BAD; 10 nM): negligible effect | effect on the level of expression of BAD (BAD; 10 μM): negligible effect
